Publication PMC6409085, “Three odorant-binding proteins are involved in the behavioral response of Sogatella furcifera to rice plant volatiles” (PeerJ, 2019)
pIC50: −log10 of the molar value. Where “and” joins values, the source holds several entries; their conditions need not be identical. Equal entries are not always repeated.

What was measured:
[1] = molecular target: SfurOBP1 (Sogatella furcifera, UniProt V5T8N5); assay: biochemical; assay type: binding; settings: for Fluorescence competitive binding assay, fluorescence intensity: OBP1, three replicate columns
Sequence of SfurOBP1 (V5T8N5 entry or part of it): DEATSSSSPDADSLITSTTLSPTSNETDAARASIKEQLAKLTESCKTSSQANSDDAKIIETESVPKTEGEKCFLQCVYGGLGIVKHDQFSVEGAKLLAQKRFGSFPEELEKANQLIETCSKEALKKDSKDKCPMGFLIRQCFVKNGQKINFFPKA
In short: (§1)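 First, 2.0 µM protein in 50 mM Tris-HCl (pH 7.4) was titrated with 1-NPN to obtain K1-NPN. Then odorants (2–20 µM final) competed against 2.0 µM 1-NPN, with fluorescence (ex 337 nm) recorded after 2 min. Ki was computed from IC50 via Ki = IC50/(1 + [1-NPN]/K1-NPN).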

[2] = molecular target: SfurOBP11 (Sogatella furcifera, UniProt V5T6E3); assay: biochemical; assay type: binding
Sequence of SfurOBP11 (V5T6E3 entry or part of it): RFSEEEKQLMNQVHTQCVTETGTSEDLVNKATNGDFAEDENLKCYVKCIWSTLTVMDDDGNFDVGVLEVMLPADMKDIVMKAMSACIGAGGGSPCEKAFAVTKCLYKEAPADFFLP
In short: as §1

[3] = molecular target: SfurOBP3 (Sogatella furcifera, UniProt V5T818); assay: biochemical; assay type: binding; settings: for Fluorescence competitive binding assay, fluorescence intensity: OBP3, three replicate columns
Sequence of SfurOBP3 (V5T818 entry or part of it): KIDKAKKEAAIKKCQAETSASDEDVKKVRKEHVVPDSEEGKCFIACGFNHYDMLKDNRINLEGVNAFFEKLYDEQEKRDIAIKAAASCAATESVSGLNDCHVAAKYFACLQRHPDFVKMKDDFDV
In short: as §1

[4] = molecular target: SfurOBP2 (Sogatella furcifera, UniProt V5T759); assay: biochemical; assay type: binding
Sequence of SfurOBP2 (V5T759 entry or part of it): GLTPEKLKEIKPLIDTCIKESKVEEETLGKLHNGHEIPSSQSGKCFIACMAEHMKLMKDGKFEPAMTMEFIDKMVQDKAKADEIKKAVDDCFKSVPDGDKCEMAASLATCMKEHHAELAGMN
In short: as §1

[5] = test system: S. furcifera adults; assay: Y-tube olfactometer behavioral trials; assay type: in vivo, Sogatella furcifera; settings: odorant 50 µL/L vs hexane; adults
In short: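 Single S. furcifera adults (2 days post-emergence, starved 0.5 h) chose between odorant (100 µL of 50 µL/L on filter paper) and hexane control in a glass Y-tube, charcoal-filtered humidified air 300 mL/min per arm, 25 ± 1 °C, 50% RH. Choice scored if insect passed half an arm and stayed >1 min within 10 min; 45 insects per compound, chi-squared test.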

Fluorescence competitive binding assay, fluorescence intensity ([1]; ligand concentration 2 (μM)): 6022 and 9475 and 7407
Fluorescence competitive binding assay, fluorescence intensity ([1]; ligand concentration 4 (μM)): 7163 and 8831 and 6832
Fluorescence competitive binding assay, fluorescence intensity ([1]; ligand concentration 6 (μM)): 9235 and 7734 and 8738
Fluorescence competitive binding assay, fluorescence intensity ([1]; ligand concentration 8 (μM)): 7490 and 9773 and 9402
Fluorescence competitive binding assay, fluorescence intensity ([1]; ligand concentration 10 (μM)): 10034 and 9701 and 9801
Fluorescence competitive binding assay, fluorescence intensity ([1]; ligand concentration 12 (μM)): 16511 and 14895 and 12657
Fluorescence competitive binding assay, fluorescence intensity ([1]; ligand concentration 14 (μM)): 9553 and 12263 and 10210
Fluorescence competitive binding assay, fluorescence intensity ([1]; ligand concentration 16 (μM)): 10515 and 10611 and 10617
Fluorescence competitive binding assay, fluorescence intensity ([1]; ligand concentration 18 (μM)): 11876 and 13682 and 11119
Fluorescence competitive binding assay, fluorescence intensity ([1]; ligand concentration 20 (μM)): 17922 and 11049 and 10258
pIC50 ([1]; SfurOBP1, protein and 1-NPN both 2.0 µM, competitor 2-20 µM, read-out: IC50): < 4.70
pIC50 ([2]; SfurOBP11, protein and 1-NPN both 2.0 µM, competitor 2-20 µM, read-out: IC50): < 4.70
Fluorescence intensity, fluorescence competitive binding assay, OBP11 ([2]; ligand concentration 2, replicate 1): 29943
Fluorescence intensity, fluorescence competitive binding assay, OBP11 ([2]; ligand concentration 2, replicate 2): 27499
Fluorescence intensity, fluorescence competitive binding assay, OBP11 ([2]; ligand concentration 2, replicate 3): 28054
Fluorescence intensity, fluorescence competitive binding assay, OBP11 ([2]; ligand concentration 4, replicate 1): 30256
Fluorescence intensity, fluorescence competitive binding assay, OBP11 ([2]; ligand concentration 4, replicate 2): 30866
Fluorescence intensity, fluorescence competitive binding assay, OBP11 ([2]; ligand concentration 4, replicate 3): 29645
Fluorescence intensity, fluorescence competitive binding assay, OBP11 ([2]; ligand concentration 6, replicate 1): 26462
Fluorescence intensity, fluorescence competitive binding assay, OBP11 ([2]; ligand concentration 6, replicate 2): 29047
Fluorescence intensity, fluorescence competitive binding assay, OBP11 ([2]; ligand concentration 6, replicate 3): 31220
Fluorescence intensity, fluorescence competitive binding assay, OBP11 ([2]; ligand concentration 8, replicate 1): 26278
Fluorescence intensity, fluorescence competitive binding assay, OBP11 ([2]; ligand concentration 8, replicate 2): 28884
Fluorescence intensity, fluorescence competitive binding assay, OBP11 ([2]; ligand concentration 8, replicate 3): 31318
Fluorescence intensity, fluorescence competitive binding assay, OBP11 ([2]; ligand concentration 10, replicate 1): 27323
Fluorescence intensity, fluorescence competitive binding assay, OBP11 ([2]; ligand concentration 10, replicate 2): 28751
Fluorescence intensity, fluorescence competitive binding assay, OBP11 ([2]; ligand concentration 10, replicate 3): 30741
Fluorescence intensity, fluorescence competitive binding assay, OBP11 ([2]; ligand concentration 12, replicate 1): 30511
Fluorescence intensity, fluorescence competitive binding assay, OBP11 ([2]; ligand concentration 12, replicate 2): 30637
Fluorescence intensity, fluorescence competitive binding assay, OBP11 ([2]; ligand concentration 12, replicate 3): 30384
Fluorescence intensity, fluorescence competitive binding assay, OBP11 ([2]; ligand concentration 14, replicate 1): 29980
Fluorescence intensity, fluorescence competitive binding assay, OBP11 ([2]; ligand concentration 14, replicate 2): 30187
Fluorescence intensity, fluorescence competitive binding assay, OBP11 ([2]; ligand concentration 14, replicate 3): 31537
Fluorescence intensity, fluorescence competitive binding assay, OBP11 ([2]; ligand concentration 16, replicate 1): 25150
Fluorescence intensity, fluorescence competitive binding assay, OBP11 ([2]; ligand concentration 16, replicate 2): 28430
Fluorescence intensity, fluorescence competitive binding assay, OBP11 ([2]; ligand concentration 16, replicate 3): 29261
Fluorescence intensity, fluorescence competitive binding assay, OBP11 ([2]; ligand concentration 18, replicate 1): 33050
Fluorescence intensity, fluorescence competitive binding assay, OBP11 ([2]; ligand concentration 18, replicate 2): 34724
Fluorescence intensity, fluorescence competitive binding assay, OBP11 ([2]; ligand concentration 18, replicate 3): 33545
Fluorescence intensity, fluorescence competitive binding assay, OBP11 ([2]; ligand concentration 20, replicate 1): 33953
Fluorescence intensity, fluorescence competitive binding assay, OBP11 ([2]; ligand concentration 20, replicate 2): 35669
Fluorescence intensity, fluorescence competitive binding assay, OBP11 ([2]; ligand concentration 20, replicate 3): 33542
Fluorescence competitive binding assay, fluorescence intensity ([3]; ligand concentration 2): 83183 and 87404 and 88774
Fluorescence competitive binding assay, fluorescence intensity ([3]; ligand concentration 4): 91510 and 89708 and 93194
Fluorescence competitive binding assay, fluorescence intensity ([3]; ligand concentration 6): 97532 and 94447 and 95269
Fluorescence competitive binding assay, fluorescence intensity ([3]; ligand concentration 8): 93074 and 89520 and 89172
Fluorescence competitive binding assay, fluorescence intensity ([3]; ligand concentration 10): 92952 and 88800 and 85833
Fluorescence competitive binding assay, fluorescence intensity ([3]; ligand concentration 12): 87947 and 90919 and 89332
Fluorescence competitive binding assay, fluorescence intensity ([3]; ligand concentration 14): 86216 and 85989 and 89098
Fluorescence competitive binding assay, fluorescence intensity ([3]; ligand concentration 16): 77694 and 82013 and 80619
Fluorescence competitive binding assay, fluorescence intensity ([3]; ligand concentration 18): 91776 and 100406 and 90755
Fluorescence competitive binding assay, fluorescence intensity ([3]; ligand concentration 20): 89755 and 85247 and 85349
pIC50 ([3]; SfurOBP3, protein and 1-NPN both 2.0 µM, competitor 2-20 µM, read-out: IC50): < 4.70
pIC50 ([4]; SfurOBP2, protein and 1-NPN both 2.0 µM, competitor 2-20 µM, read-out: IC50): < 4.70
Fluorescence competitive binding assay, OBP2 (raw fluorescence reading) ([4]; ligand concentration 2 (unit not given), replicate column 1 of 3): 17681
Fluorescence competitive binding assay, OBP2 (raw fluorescence reading) ([4]; ligand concentration 2 (unit not given), replicate column 2 of 3): 15844
Fluorescence competitive binding assay, OBP2 (raw fluorescence reading) ([4]; ligand concentration 2 (unit not given), replicate column 3 of 3): 16950
Fluorescence competitive binding assay, OBP2 (raw fluorescence reading) ([4]; ligand concentration 4 (unit not given), replicate column 1 of 3): 17519
Fluorescence competitive binding assay, OBP2 (raw fluorescence reading) ([4]; ligand concentration 4 (unit not given), replicate column 2 of 3): 20288
Fluorescence competitive binding assay, OBP2 (raw fluorescence reading) ([4]; ligand concentration 4 (unit not given), replicate column 3 of 3): 20488
Fluorescence competitive binding assay, OBP2 (raw fluorescence reading) ([4]; ligand concentration 6 (unit not given), replicate column 1 of 3): 19784
Fluorescence competitive binding assay, OBP2 (raw fluorescence reading) ([4]; ligand concentration 6 (unit not given), replicate column 2 of 3): 21064
Fluorescence competitive binding assay, OBP2 (raw fluorescence reading) ([4]; ligand concentration 6 (unit not given), replicate column 3 of 3): 19193
Fluorescence competitive binding assay, OBP2 (raw fluorescence reading) ([4]; ligand concentration 8 (unit not given), replicate column 1 of 3): 20311
Fluorescence competitive binding assay, OBP2 (raw fluorescence reading) ([4]; ligand concentration 8 (unit not given), replicate column 2 of 3): 19912
Fluorescence competitive binding assay, OBP2 (raw fluorescence reading) ([4]; ligand concentration 8 (unit not given), replicate column 3 of 3): 20694
Fluorescence competitive binding assay, OBP2 (raw fluorescence reading) ([4]; ligand concentration 10 (unit not given), replicate column 1 of 3): 21153
Fluorescence competitive binding assay, OBP2 (raw fluorescence reading) ([4]; ligand concentration 10 (unit not given), replicate column 2 of 3): 20155
Fluorescence competitive binding assay, OBP2 (raw fluorescence reading) ([4]; ligand concentration 10 (unit not given), replicate column 3 of 3): 21164
Fluorescence competitive binding assay, OBP2 (raw fluorescence reading) ([4]; ligand concentration 12 (unit not given), replicate column 1 of 3): 17882
Fluorescence competitive binding assay, OBP2 (raw fluorescence reading) ([4]; ligand concentration 12 (unit not given), replicate column 2 of 3): 20189
Fluorescence competitive binding assay, OBP2 (raw fluorescence reading) ([4]; ligand concentration 12 (unit not given), replicate column 3 of 3): 20719
Fluorescence competitive binding assay, OBP2 (raw fluorescence reading) ([4]; ligand concentration 14 (unit not given), replicate column 1 of 3): 19553
Fluorescence competitive binding assay, OBP2 (raw fluorescence reading) ([4]; ligand concentration 14 (unit not given), replicate column 2 of 3): 20680
Fluorescence competitive binding assay, OBP2 (raw fluorescence reading) ([4]; ligand concentration 14 (unit not given), replicate column 3 of 3): 20531
Fluorescence competitive binding assay, OBP2 (raw fluorescence reading) ([4]; ligand concentration 16 (unit not given), replicate column 1 of 3): 20438
Fluorescence competitive binding assay, OBP2 (raw fluorescence reading) ([4]; ligand concentration 16 (unit not given), replicate column 2 of 3): 19246
Fluorescence competitive binding assay, OBP2 (raw fluorescence reading) ([4]; ligand concentration 16 (unit not given), replicate column 3 of 3): 20069
Fluorescence competitive binding assay, OBP2 (raw fluorescence reading) ([4]; ligand concentration 18 (unit not given), replicate column 1 of 3): 24630
Fluorescence competitive binding assay, OBP2 (raw fluorescence reading) ([4]; ligand concentration 18 (unit not given), replicate column 2 of 3): 24806
Fluorescence competitive binding assay, OBP2 (raw fluorescence reading) ([4]; ligand concentration 18 (unit not given), replicate column 3 of 3): 23381
Fluorescence competitive binding assay, OBP2 (raw fluorescence reading) ([4]; ligand concentration 20 (unit not given), replicate column 1 of 3): 26164
Fluorescence competitive binding assay, OBP2 (raw fluorescence reading) ([4]; ligand concentration 20 (unit not given), replicate column 2 of 3): 20955
Fluorescence competitive binding assay, OBP2 (raw fluorescence reading) ([4]; ligand concentration 20 (unit not given), replicate column 3 of 3): 19728
Structure (SMILES): CCCCCCCCCCCCCC [n-tetradecane]
number of insects choosing hexane arm [5]: 13
number of insects choosing volatilies arm [5]: 14
number of insects failed (no choice) [5]: 13
